Assay [1] has as its system Cavia porcellus. The experiment in a line: Compound was tested for antigen induced airway obstruction in guinea pig at 1.0 hr upon peroral administration. Format: functional. To be noted: po.
The next assay relates to U-937. The assay is described as follows: Compound was evaluated for influx of calcium mobilization in human U937 cells. It is filed as functional, cell-based. On the technique in general: Calcium flux is commonly read through the fluorescence of an indicator in the cells.
The subject of assay [2] is Cavia porcellus. The experiment in a line: Compound was tested for antigen induced airway obstruction in guinea pig at 2.0 hr upon peroral administration. Format: functional. To be noted: po.

The term ED50 denotes the dose at which the effect has come halfway, by size or by number of responders. In general, IC50 refers to the point on the concentration scale where inhibition reaches its midpoint. Consider `O=C(Nc1cccc2c(=O)cc(-c3nnn[nH]3)oc12)c1ccc(OCCCCc2ccccc2)cc1`, for which the ED50 in the assay with Cavia porcellus [1] stood at 1.5 mg/kg. The IC50 in the assay on U-937 is 1 nM.
On to `O=C(O)c1cccc(C[C@@H]2COc3ccc(OCc4nc5cc(F)ccc5s4)cc3[C@@H]2O)c1`, for which the median effective dose (ED50) with Cavia porcellus [2] was found to be 10.2 mg/kg. Further, the 50% inhibitory concentration (IC50) with U-937 was determined as 310 nM.
Take `C[C@H]1Oc2ccc(OCc3nc4cc(F)ccc4s3)cc2[C@H](O)[C@@H]1Cc1cccc(NS(=O)(=O)C(F)(F)F)c1` (stereo in doubt; (+)-26): the ED50 in the assay with Cavia porcellus [1] came out at 0.5 mg/kg. Besides, the IC50 with U-937 came out at 8 nM.
With `COc1cc(C(=O)NS(=O)(=O)c2ccccc2C)ccc1Cc1cn(C)c2ccc(NC(=O)OC3CCCC3)cc12` [ZAFIRLUKAST], in the assay on Cavia porcellus [2], the 50% effective dose (ED50) was determined as 0.9 mg/kg.

The values are drawn from ChEMBL document CHEMBL1131366, “Development of new chromanol antagonists of leukotriene D4” (Bioorg Med Chem Lett, 1998).
